Consider 62 molecules from ChEMBL document CHEMBL3046862, “Structure-activity relationship of aliphatic compounds for nematicidal activity against pine wood nematode (Bursaphelenchus xylophilus)” (2010).

Holding throughout (assay type): functional
For assay [1], the system named is Bursaphelenchus xylophilus. Nature of the assay: Nematicidal activity against Bursaphelenchus xylophilus at 0.5 mg/ml measured after 48 hr under microscope.
Assay [2] deals with Bursaphelenchus xylophilus. The assay can be described thus: Nematicidal activity against Bursaphelenchus xylophilus assessed as mortality at 0.25 mg/ml measured after 48 hr under microscope.
In assay [3] the test system is Bursaphelenchus xylophilus. Nature of the assay: Nematicidal activity against Bursaphelenchus xylophilus assessed as mortality at 0.0625 mg/ml measured after 48 hr under microscope.
In assay [4] the test system is Bursaphelenchus xylophilus. Nature of the assay: microbe, parasite or virus in culture. The note with it: 48 h, at 0.125 mg/mL.
Description: Nematicidal activity against Bursaphelenchus xylophilus assessed as mortality at 0.125 mg/ml measured after 48 hr under microscope

As for `CCCCCCCCCCC/C=C/C=O`, in assay [1], the mortality at 500 µg/mL stood at 3.3%.

On to `CCCCCCCCCO` [NONANOL], for which the mortality at 250 µg/mL in assay [2] turned out to be 100%. For the same molecule, in assay [1], the mortality at 500 µg/mL turned out to be 100%. Also, the mortality at 62.5 µg/mL in assay [3] was 4.7%. The mortality at 125 µg/mL in assay [4] is 81%.

For the molecule `CCCCCCO` [1-HEXANOL], in assay [1], the mortality at 500 µg/mL came out at 12.6%.

In assay [1], `CCCCCCCCC` [NONANE] gave a mortality at 500 µg/mL of 2.3%.

In the case of `CCCCCCCCCCCCCO`, the mortality at 500 µg/mL in assay [1] is 4.4%.

The molecule `CCCCCCCCCCCCC(=O)O` [TRIDECANOATE] gave a mortality at 500 µg/mL in assay [1] of 4.4%.

`CCCCCCCCCCCOC(C)=O` [UNDECYLACETATE] yielded a mortality at 500 µg/mL in assay [1] of 2.3%.

On to `CCCCCCCCCCCCCOC(C)=O` [TRIDECYLACETATE], for which the mortality at 500 µg/mL in assay [1] came out at 1.4%.

Turning to `CCCCCCC/C=C/CO`, the mortality at 250 µg/mL in assay [2] is 100%. The same molecule registered a mortality at 500 µg/mL in assay [1] of 100%. In assay [3], the mortality at 62.5 µg/mL came to 43.3%. For the same molecule, the mortality at 125 µg/mL in assay [4] was determined as 100%.

In turn, `CCCCCCCCCC=O` [DECANAL] displayed a mortality at 500 µg/mL in assay [1] of 7.9%.

With `CCCCCCCCCC` [DECANE], the mortality at 500 µg/mL in assay [1] was determined as 1.6%.

Regarding `CCCCCC(=O)O` [HEXANOATE], the mortality at 500 µg/mL in assay [1] was 31.3%.

With `CCCCCCCCCCCCCC(=O)O` [MYRISTIC ACID], the mortality at 500 µg/mL in assay [1] is 3.8%.

In the case of `CCCCCCCCCCCO` [UNDECANOL], in assay [2], the mortality at 250 µg/mL was 100%. Further, the mortality at 500 µg/mL in assay [1] worked out at 100%. Also, the mortality at 62.5 µg/mL in assay [3] came to 98.3%. Besides, the mortality at 125 µg/mL in assay [4] is 99.4%.

Take `CCCCCCCOC(C)=O` [HEPTYLACETATE]: the mortality at 500 µg/mL in assay [1] turned out to be 7.4%.

In turn, `CCCCCCCCCCCC(=O)O` [DODECANOATE] had a mortality at 500 µg/mL in assay [1] of 1.9%.

Turning to `CCCCCCCCC(=O)O` [NONANOATE], the mortality at 250 µg/mL in assay [2] came to 100%. For the same molecule, the mortality at 500 µg/mL in assay [1] amounted to 100%. Besides, the mortality at 62.5 µg/mL in assay [3] was 40.1%. The mortality at 125 µg/mL in assay [4] stood at 100%.

Turning to `CCCCCCCC(=O)O` [OCTANOIC ACID], the mortality at 250 µg/mL in assay [2] came to 98.9%. Besides, the mortality at 500 µg/mL in assay [1] worked out at 100%. The molecule also showed a mortality at 125 µg/mL in assay [4] of 50.1%.

The molecule `CCCCCCC=O` [HEPTANAL] gave a mortality at 500 µg/mL in assay [1] of 6%.

As for `CCCCCCC(=O)O` [HEPTANOATE], the mortality at 250 µg/mL in assay [2] was 53.7%. The mortality at 500 µg/mL in assay [1] came out at 100%.

Consider `CCCCCCCCCCO` [DECANOL], for which the mortality at 250 µg/mL in assay [2] was found to be 100%. The molecule also yielded a mortality at 500 µg/mL in assay [1] of 100%. The mortality at 62.5 µg/mL in assay [3] is 15.6%. For the same molecule, in assay [4], the mortality at 125 µg/mL worked out at 100%.

Regarding `CCCCCCCCCCCCCCO` [MYRISTYL ALCOHOL], in assay [1], the mortality at 500 µg/mL turned out to be 4%.

`CCCCCCCCCCCCCC` displayed a mortality at 500 µg/mL in assay [1] of 1.7%.

Take `CCCCC/C=C/CO`: the mortality at 250 µg/mL in assay [2] was found to be 31.5%. Also, the mortality at 500 µg/mL in assay [1] turned out to be 97.4%.

In turn, `CCCCCCCC=O` [OCTANAL] yielded a mortality at 500 µg/mL in assay [1] of 13.6%.

As for `CCCCCCCCCCC/C=C/CO`, the mortality at 500 µg/mL in assay [1] came out at 2.6%.

`CCC/C=C/C=O`: in assay [2], the mortality at 250 µg/mL is 83.1%. In addition, the mortality at 500 µg/mL in assay [1] was 95.6%. The same molecule registered a mortality at 125 µg/mL in assay [4] of 22%.

In assay [1], `CCCCCCCCC/C=C/C=O` gave a mortality at 500 µg/mL of 5.1%.

Regarding `CCCCCCCC/C=C/CO`, in assay [2], the mortality at 250 µg/mL came out at 100%. Also, in assay [1], the mortality at 500 µg/mL was 100%. The mortality at 62.5 µg/mL in assay [3] worked out at 45.1%. The molecule also registered a mortality at 125 µg/mL in assay [4] of 100%.

As for `CCCCCC/C=C/CO`, the mortality at 250 µg/mL in assay [2] was found to be 100%. This molecule also returned a mortality at 500 µg/mL in assay [1] of 100%. Further, the mortality at 125 µg/mL in assay [4] came to 45.5%.

On to `CCCCCCCC` [OCTANE], for which the mortality at 500 µg/mL in assay [1] came to 3.8%.

Consider `CCCCCCCCCCCCO` [DODECANOL], for which the mortality at 500 µg/mL in assay [1] worked out at 3.1%.

In assay [1], `CCCCCCCCCCCC` [DODECANE] displayed a mortality at 500 µg/mL of 1.6%.

With `CCCCC/C=C/C=O`, in assay [2], the mortality at 250 µg/mL stood at 99%. This molecule came in with a mortality at 500 µg/mL in assay [1] of 100%. Further, in assay [3], the mortality at 62.5 µg/mL amounted to 22.6%. Moreover, in assay [4], the mortality at 125 µg/mL was found to be 90.6%.

Take `CCCCCCCCCCC=O` [UNDECANAL]: the mortality at 500 µg/mL in assay [1] came out at 7.4%.

For `CCCCCC/C=C/C=O` [2-NONENAL], the mortality at 250 µg/mL in assay [2] amounted to 100%. The same molecule gave a mortality at 500 µg/mL in assay [1] of 100%. For the same molecule, the mortality at 62.5 µg/mL in assay [3] was 47.4%. The molecule also registered a mortality at 125 µg/mL in assay [4] of 99.8%.

In assay [1], `CCCCCCOC(C)=O` [HEXYL ACETATE] came in with a mortality at 500 µg/mL of 1.5%.

In assay [1], `CCCCCCCCC/C=C/CO` came in with a mortality at 500 µg/mL of 4.7%.

For the molecule `CCCCCCCCCCOC(C)=O` [DECYLACETATE], the mortality at 500 µg/mL in assay [1] was found to be 1.6%.

With `CCCCCCCCCC(=O)O` [DECANOIC ACID], the mortality at 250 µg/mL in assay [2] worked out at 100%. The same molecule displayed a mortality at 500 µg/mL in assay [1] of 100%. Besides, in assay [3], the mortality at 62.5 µg/mL is 59.8%. The same molecule gave a mortality at 125 µg/mL in assay [4] of 100%.

Turning to `CCCC/C=C/C=O`, the mortality at 250 µg/mL in assay [2] amounted to 97.8%. This molecule yielded a mortality at 500 µg/mL in assay [1] of 100%. Further, the mortality at 62.5 µg/mL in assay [3] turned out to be 18%. Also, the mortality at 125 µg/mL in assay [4] came to 76.3%.

On to `CCCCCCCCCCCCC`, for which, in assay [1], the mortality at 500 µg/mL stood at 3.3%.

For `CCCCCC` [HEXANE], in assay [1], the mortality at 500 µg/mL is 4.4%.

In assay [1], `CCCCCCCC/C=C/C=O` gave a mortality at 500 µg/mL of 24.8%.

In the case of `CCCCCCCCCCC(=O)O` [UNDECANOATE], the mortality at 250 µg/mL in assay [2] came out at 96%. Besides, the mortality at 500 µg/mL in assay [1] came to 98.5%. In assay [4], this molecule showed a mortality at 125 µg/mL of 51.3%.

Take `CCCCCCC` [HEPTANE]: in assay [1], the mortality at 500 µg/mL was 2.6%.

Regarding `CCCCCCCCCCC`, in assay [1], the mortality at 500 µg/mL amounted to 1.6%.

Regarding `CCCCCCCCCC/C=C/CO`, the mortality at 500 µg/mL in assay [1] is 3.5%.

In the case of `CCCC/C=C/CO`, the mortality at 500 µg/mL in assay [1] is 50.9%.

Turning to `CCCCCCCCOC(C)=O` [OCTYL ACETATE], in assay [1], the mortality at 500 µg/mL is 4.9%.

In assay [1], `CCCCCCCCCCCCCC=O` [TETRADECANAL] had a mortality at 500 µg/mL of 3.5%.

Take `CCCCCCCCCCCC=O` [DODECANAL]: the mortality at 500 µg/mL in assay [1] was found to be 6.6%.

Molecule `CCCCCCCCCOC(C)=O` [NONYLACETATE] gave a mortality at 500 µg/mL in assay [1] of 3.1%.

In assay [1], `CCCCCCCCCC/C=C/C=O` registered a mortality at 500 µg/mL of 4.9%.

For the molecule `CCCCCCCCCCCCC=O` [TRIDECANAL], the mortality at 500 µg/mL in assay [1] amounted to 7.6%.

On to `CCCCCCCO` [1-HEPTANOL], for which, in assay [1], the mortality at 500 µg/mL was 29.8%.

Turning to `CCCCCCCCCCCCOC(C)=O` [DODECYLACETATE], in assay [1], the mortality at 500 µg/mL worked out at 1.7%.

In the case of `CCCCCCCCCCCCCCOC(C)=O`, in assay [1], the mortality at 500 µg/mL stood at 0.9%.

Regarding `CCCCCCCCC=O` [NONANAL], the mortality at 500 µg/mL in assay [1] stood at 14.2%.

Turning to `CCC/C=C/CO`, in assay [1], the mortality at 500 µg/mL was found to be 13%.

As for `CCCCCCCCO` [OCTANOL], in assay [2], the mortality at 250 µg/mL was 17%. The mortality at 500 µg/mL in assay [1] came out at 100%.

The molecule `CCCCCC=O` [HEXANAL] gave a mortality at 500 µg/mL in assay [1] of 4.2%.

The mortality is the share of the test organisms that died.
